Results from patent US10294202B2, “Pyrrolidinones as herbicides” (FMC Corporation, priority 2013, dated 2019).

How the values were obtained:
[1] = test system: sedge, umbrella; assay: Test B flooded paddy test; assay type: in vivo, Cyperus difformis; conditions: Flood, scale of 0 to 100 where 0 is no effect and 100 is complete control
Method in brief: (§1)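 Paddy-water application at a 3 cm flood, young plants having two leaves. Water level maintained; greenhouse, 13–15 days; visual 0–100 control rating.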

[2] = test system: barnyardgrass; assay: Test A pre-/postemergence herbicide test; assay type: in vivo, Echinochloa crus-galli
Method in brief: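 Greenhouse pot test with pre- and postemergence application of surfactant-containing solvent formulations. Postemergence plants were 2–10 cm, one- to two-leaf stage. Response scored visually after ~10 days, 0 (no effect) to 100 (complete control).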

[3] = test system: corn; assay: Test C pre-/postemergence herbicide test; assay type: in vivo, Zea mays
Method in brief: (§2)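 Greenhouse pots; formulation = non-phytotoxic solvent mix + surfactant. PRE onto seeds in loam:sand; POST at 1–4 leaves (2–18 cm) in peat moss/vermiculite medium. Read-out: visual % control vs untreated, day 13–15.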

[4] = test system: blackgrass; assay: Test C pre-/postemergence herbicide test; assay type: in vivo, Alopecurus myosuroides
Method in brief: as §2

[5] = test system: barnyardgrass; assay: Test B flooded paddy test; assay type: in vivo, Echinochloa crus-galli; conditions: Flood, scale of 0 to 100 where 0 is no effect and 100 is complete control
Method in brief: as §1

[6] = test system: lambsquarters; assay: Test C pre-/postemergence herbicide test; assay type: in vivo, Chenopodium album
Method in brief: as §2

[7] = test system: crabgrass, large; assay: Test C pre-/postemergence herbicide test; assay type: in vivo, Digitaria sanguinalis
Method in brief: as §2

[8] = test system: velvetleaf; assay: Test C pre-/postemergence herbicide test; assay type: in vivo, Abutilon theophrasti
Method in brief: as §2

[9] = test system: wheat (winter wheat); assay: Test C pre-/postemergence herbicide test; assay type: in vivo, Triticum aestivum
Method in brief: as §2

[10] = test system: oat, wild; assay: Test C pre-/postemergence herbicide test; assay type: in vivo, Avena fatua
Method in brief: as §2

[11] = test system: soybean; assay: Test C pre-/postemergence herbicide test; assay type: in vivo, Glycine max
Method in brief: as §2

[12] = Postemergence, 500 g ai/ha, 0 to 100 scale (0 no effect, 100 complete control)
[13] = Postemergence, 31 g ai/ha, scale 0 to 100 (0 no effect, 100 complete control)
[14] = Postemergence, 62 g ai/ha, scale 0 (no effect) to 100 (complete control)
[15] = Postemergence, 125 g ai/ha, scale 0 to 100 (0 no effect, 100 complete control)
[16] = Postemergence, 250 g ai/ha, scale 0 to 100 (0 no effect, 100 complete control)
[17] = Preemergence, 31 g ai/ha, scale 0 to 100, 0 is no effect and 100 is complete control
[18] = Preemergence, 62 g ai/ha, scale 0 to 100 (0 no effect, 100 complete control)
[19] = Preemergence, 125 g ai/ha, scale 0 to 100 (0 no effect, 100 complete control)
[20] = Preemergence, 62 g ai/ha, scale 0 to 100

CN1CC(c2ccc(C(F)(F)F)cc2)C(C(=O)Nc2cccc(F)c2F)C1=O (stereo not drawn) [Compound 306]
Plant response rating, Sedge, Umbrella ([1]; 500 g ai/ha): 0
Plant response rating, Barnyardgrass ([2]; Postemergence, 125 g ai/ha, visual rating on 0 to 100 scale (0 no effect, 100 complete control), approx. 10 days): 80
Plant response rating, Barnyardgrass [2, 12]: 80
Plant response rating, Barnyardgrass ([2]; Preemergence, 125 g ai/ha, 0 to 100 scale where 0 is no effect and 100 is complete control): 90
Barnyardgrass plant response rating ([2]; Preemergence, 500 g ai/ha, visual rating on 0 to 100 scale (0 no effect, 100 complete control)): 90
Plant response rating, Corn [3, 13]: 0
Plant response rating, Corn [3, 14]: 0
Plant response rating, Corn [3, 15]: 0
Plant response rating, Corn [3, 16]: 20
Corn plant response rating [3, 17]: 40
Corn plant response rating [3, 18]: 60
Plant response rating, Corn [3, 19]: 80
Plant response rating (scale of 0 to 100), Corn ([3]; Preemergence, 250 g ai/ha): 75
Plant response rating, Blackgrass [4, 13]: 0
Plant response rating, Blackgrass [4, 14]: 0
Plant response rating, Blackgrass [4, 15]: 5
Plant response rating, Blackgrass [4, 16]: 5
Blackgrass plant response rating [4, 17]: 0
Blackgrass plant response rating [4, 18]: 30
Plant response rating, Blackgrass [4, 19]: 60
Plant response rating (scale of 0 to 100), Blackgrass ([4]; Preemergence, 250 g ai/ha): 90
Plant response rating, Barnyardgrass ([5]; 500 g ai/ha): 75
Plant response rating, Lambsquarters [6, 13]: 60
Plant response rating, Lambsquarters [6, 14]: 70
Plant response rating, Lambsquarters [6, 15]: 90
Plant response rating, Lambsquarters [6, 16]: 75
Lambsquarters plant response rating [6, 17]: 55
Lambsquarters plant response rating [6, 18]: 65
Plant response rating, Lambsquarters [6, 19]: 75
Plant response rating (scale of 0 to 100), Lambsquarters ([6]; Preemergence, 250 g ai/ha): 80
Plant response rating, Crabgrass, Large [7, 13]: 10
Plant response rating, Crabgrass, Large [7, 14]: 45
Plant response rating, Crabgrass, Large [7, 15]: 75
Plant response rating, Crabgrass, Large [7, 16]: 85
Crabgrass, Large plant response rating [7, 17]: 90
Crabgrass, Large plant response rating [7, 18]: 95
Plant response rating, Crabgrass, Large [7, 19]: 95
Plant response rating (scale of 0 to 100), Crabgrass, Large ([7]; Preemergence, 250 g ai/ha): 98
Plant response rating, Velvetleaf [8, 13]: 0
Plant response rating, Velvetleaf [8, 14]: 10
Plant response rating, Velvetleaf [8, 15]: 50
Plant response rating, Velvetleaf [8, 16]: 65
Velvetleaf plant response rating [8, 18]: 60
Plant response rating, Velvetleaf [8, 19]: 60
Plant response rating (scale of 0 to 100), Velvetleaf ([8]; Preemergence, 250 g ai/ha): 65
Plant response rating, Wheat [9, 13]: 0
Plant response rating, Wheat [9, 14]: 0
Plant response rating, Wheat [9, 15]: 0
Plant response rating, Wheat [9, 16]: 0
Wheat plant response rating [9, 18]: 50
Plant response rating (scale of 0 to 100), Wheat ([9]; Preemergence, 250 g ai/ha): 85
Plant response rating, Oat, Wild [10, 13]: 0
Plant response rating, Oat, Wild [10, 14]: 0
Plant response rating, Oat, Wild [10, 15]: 0
Plant response rating, Oat, Wild [10, 16]: 5
Plant response rating, Soybean [11, 13]: 0
Plant response rating, Soybean [11, 14]: 5
Plant response rating, Soybean [11, 15]: 5
Plant response rating, Soybean [11, 16]: 5
Soybean plant response rating [11, 18]: 0
Plant response rating, Soybean [11, 19]: 0
Plant response rating (scale of 0 to 100), Soybean ([11]; Preemergence, 250 g ai/ha): 0

O=C1NCC(c2cccc(OC(F)(F)F)c2)C1C(=O)Nc1ccccc1F (stereo not drawn) [Compound 69]
Plant response rating, Sedge, Umbrella ([1]; 250 g ai/ha): 65
Plant response rating, Barnyardgrass ([2]; Postemergence, 125 g ai/ha, 0 to 100 scale, 0 no effect, 100 complete control): 70
Plant response rating, Barnyardgrass [2, 12]: 80
Barnyardgrass plant response rating ([2]; Preemergence, 125 g ai/ha, visual rating on 0 to 100 scale (0 no effect, 100 complete control)): 80
Plant response rating, Barnyardgrass ([2]; preemergence, 500 g ai/ha, 0 to 100 scale (0 no effect, 100 complete control)): 90
Corn plant response rating [3, 17]: 15
Plant response rating, Corn [3, 20]: 15
Plant response rating, Corn [3, 19]: 25
Plant response rating (scale of 0 to 100), Corn ([3]; Preemergence, 250 g ai/ha): 30
Blackgrass plant response rating [4, 17]: 0
Plant response rating, Blackgrass [4, 20]: 5
Plant response rating, Blackgrass [4, 19]: 30
Plant response rating (scale of 0 to 100), Blackgrass ([4]; Preemergence, 250 g ai/ha): 35
Plant response rating, Barnyardgrass ([5]; 250 g ai/ha): 40
Lambsquarters plant response rating [6, 17]: 35
Plant response rating, Lambsquarters [6, 20]: 35
Plant response rating, Lambsquarters [6, 19]: 65
Plant response rating (scale of 0 to 100), Lambsquarters ([6]; Preemergence, 250 g ai/ha): 85
Crabgrass, Large plant response rating [7, 17]: 90
Plant response rating, Crabgrass, Large [7, 20]: 90
Plant response rating, Crabgrass, Large [7, 19]: 95
Plant response rating (scale of 0 to 100), Crabgrass, Large ([7]; Preemergence, 250 g ai/ha): 95
Velvetleaf plant response rating [8, 17]: 30
Plant response rating, Velvetleaf [8, 20]: 30
Plant response rating, Velvetleaf [8, 19]: 30
Plant response rating (scale of 0 to 100), Velvetleaf ([8]; Preemergence, 250 g ai/ha): 30
Wheat plant response rating [9, 17]: 0
Plant response rating, Wheat [9, 20]: 0
Plant response rating, Wheat [9, 19]: 5
Plant response rating (scale of 0 to 100), Wheat ([9]; Preemergence, 250 g ai/ha): 5
Plant response rating, Oat, Wild [10, 20]: 0
Plant response rating, Oat, Wild [10, 19]: 5
Plant response rating (scale of 0 to 100), Oat, Wild ([10]; Preemergence, 250 g ai/ha): 5
Soybean plant response rating [11, 17]: 0
Plant response rating, Soybean [11, 20]: 0
Plant response rating, Soybean [11, 19]: 0
Plant response rating (scale of 0 to 100), Soybean ([11]; Preemergence, 250 g ai/ha): 0

O=C1NCC(c2ccc(C(F)(F)F)cc2)C1C(=O)Nc1cccc(F)c1F (racemic) [Compound 202]
Plant response rating, Sedge, Umbrella ([1]; 500 g ai/ha): 0
Plant response rating, Barnyardgrass ([2]; 125 g ai/ha, visual rating, 0 to 100 scale, 0 no effect, 100 complete control, approximately 10 days, preemergence): 90
Plant response rating, Barnyardgrass ([2]; Postemergence, 125 g ai/ha, 0 to 100 scale, 0 is no effect, 100 is complete control): 80
Barnyardgrass plant response rating (0 to 100 scale, 0 is no effect, 100 is complete control) ([2]; Postemergence, 500 g ai/ha): 90
Plant response rating, Barnyardgrass ([2]; preemergence, 500 g ai/ha, 0 to 100 scale, 0 is no effect and 100 is complete control): 90
Plant response rating, Corn [3, 13]: 0
Plant response rating, Corn [3, 14]: 0
Plant response rating, Corn [3, 15]: 10
Plant response rating, Corn [3, 16]: 35
Corn plant response rating [3, 17]: 20
Corn plant response rating [3, 18]: 85
Plant response rating, Corn [3, 19]: 75
Plant response rating (scale of 0 to 100), Corn ([3]; Preemergence, 250 g ai/ha): 85
Plant response rating, Blackgrass [4, 13]: 0
Plant response rating, Blackgrass [4, 14]: 0
Plant response rating, Blackgrass [4, 15]: 5
Plant response rating, Blackgrass [4, 16]: 10
Blackgrass plant response rating [4, 17]: 70
Plant response rating, Blackgrass [4, 20]: 80
Plant response rating, Blackgrass [4, 19]: 90
Plant response rating (scale of 0 to 100), Blackgrass ([4]; Preemergence, 250 g ai/ha): 90
Plant response rating, Barnyardgrass ([5]; 500 g ai/ha): 65
Plant response rating, Lambsquarters [6, 13]: 70
Plant response rating, Lambsquarters [6, 14]: 80
Plant response rating, Lambsquarters [6, 15]: 80
Plant response rating, Lambsquarters [6, 16]: 85
Lambsquarters plant response rating [6, 17]: 80
Lambsquarters plant response rating [6, 18]: 90
Plant response rating, Lambsquarters [6, 19]: 90
Plant response rating (scale of 0 to 100), Lambsquarters ([6]; Preemergence, 250 g ai/ha): 100
Plant response rating, Crabgrass, Large [7, 13]: 30
Plant response rating, Crabgrass, Large [7, 14]: 50
Plant response rating, Crabgrass, Large [7, 15]: 60
Plant response rating, Crabgrass, Large [7, 16]: 75
Crabgrass, Large plant response rating [7, 17]: 90
Crabgrass, Large plant response rating [7, 18]: 95
Plant response rating, Crabgrass, Large [7, 19]: 98
Plant response rating (scale of 0 to 100), Crabgrass, Large ([7]; Preemergence, 250 g ai/ha): 98
Plant response rating, Velvetleaf [8, 13]: 10
Plant response rating, Velvetleaf [8, 14]: 20
Plant response rating, Velvetleaf [8, 15]: 30
Plant response rating, Velvetleaf [8, 16]: 55
Velvetleaf plant response rating [8, 17]: 10
Velvetleaf plant response rating [8, 18]: 30
Plant response rating, Velvetleaf [8, 19]: 50
Plant response rating (scale of 0 to 100), Velvetleaf ([8]; Preemergence, 250 g ai/ha): 65
Plant response rating, Wheat [9, 13]: 0
Plant response rating, Wheat [9, 14]: 0
Plant response rating, Wheat [9, 15]: 0
Plant response rating, Wheat [9, 16]: 5
Wheat plant response rating [9, 17]: 0
Wheat plant response rating [9, 18]: 30
Plant response rating, Wheat [9, 19]: 55
Plant response rating (scale of 0 to 100), Wheat ([9]; Preemergence, 250 g ai/ha): 60
Plant response rating, Oat, Wild [10, 13]: 0
Plant response rating, Oat, Wild [10, 14]: 0
Plant response rating, Oat, Wild [10, 15]: 30
Plant response rating, Oat, Wild [10, 16]: 10
Plant response rating, Soybean [11, 13]: 0
Plant response rating, Soybean [11, 14]: 0
Plant response rating, Soybean [11, 15]: 5
Plant response rating, Soybean [11, 16]: 10
Soybean plant response rating [11, 17]: 0
Soybean plant response rating [11, 18]: 25
Plant response rating, Soybean [11, 19]: 0
Plant response rating (scale of 0 to 100), Soybean ([11]; Preemergence, 250 g ai/ha): 10
